From ChEMBL document CHEMBL1201862, “PubChem BioAssay data set” (2004)
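These data come from cells grown in 96-well plates and exposed to compound for 48 hours at five concentrations. GI50 is the concentration that inhibits growth by half.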 Active and inactive are the calls of the source. No stated cut-off is given here; in the data, active = GI50 up to about 1.1 µM and inactive = higher.

Assays:
Assay in all cases: DTP human tumour cell line panel, 48 h
SR = system: SR
RXF 393 = system: RXF 393
SF-539 = system: SF-539
NCI-H23 = system: NCI-H23
SN12C = system: SN12C
SK-MEL-28 = system: SK-MEL-28
U-251 = system: U-251
EKVX = system: EKVX
UO-31 = system: UO-31
CCRF-CEM = system: CCRF-CEM
MOLT-4 = system: MOLT-4
A498 = system: A498
M19-MEL = system: M19-MEL
SW-620 = system: SW-620
SNB-19 = system: SNB-19
SF-295 = system: SF-295
KM12 = system: KM12

Measured: GI50

C#CCNC(=O)NCCCCC(NC(C)=O)C(=O)NCc1ccccc1 (stereo unspecified)
inactive: SR > 100 µM | RXF 393 > 100 µM | SF-539 > 100 µM | NCI-H23 > 100 µM | SN12C > 100 µM | SK-MEL-28 > 100 µM | U-251 > 100 µM | EKVX > 100 µM | UO-31 > 100 µM | CCRF-CEM > 100 µM | MOLT-4 > 100 µM | A498 > 100 µM | M19-MEL > 100 µM | SW-620 > 100 µM | SNB-19 > 100 µM | SF-295 > 100 µM | KM12 > 100 µM

CN1CCC(SC2Cc3cc(Cl)ccc3Sc3ccccc32)CC1 (stereo unspecified)
inactive: SR 8.18 µM | RXF 393 3.66 µM | SF-539 16.4 µM | NCI-H23 14.1 µM | SN12C 14.6 µM | SK-MEL-28 2.12 µM | U-251 13.6 µM | EKVX 18.5 µM | UO-31 3.86 µM | MOLT-4 4.24 µM | A498 16.1 µM | M19-MEL 12.7 µM | SW-620 13.6 µM | SNB-19 15.6 µM | SF-295 15.9 µM | KM12 10.3 µM

N#CCN1C(=O)c2cccc3cc([N+](=O)[O-])cc(c23)C1=O
inactive: SR 5.69 µM | RXF 393 28.4 µM | SF-539 33 µM | NCI-H23 29.5 µM | SN12C 29.4 µM | SK-MEL-28 35.2 µM | U-251 38.7 µM | EKVX 74.8 µM | UO-31 23.4 µM | CCRF-CEM 24.7 µM | MOLT-4 26.4 µM | A498 47.1 µM | M19-MEL 19.8 µM | SW-620 36.5 µM | SNB-19 84.9 µM | SF-295 61.9 µM | KM12 32 µM

CC1OC(OP(=O)(OCc2ccccc2)OCc2ccccc2)C(OC(=O)c2ccccc2)C(OC(=O)c2ccccc2)C1I (stereo unspecified)
inactive: SR 17.5 µM | RXF 393 12.7 µM | NCI-H23 30.3 µM | SN12C 20.9 µM | SK-MEL-28 86.7 µM | U-251 50.4 µM | EKVX 40.9 µM | UO-31 27.4 µM | CCRF-CEM 24.5 µM | MOLT-4 17.3 µM | M19-MEL 61.5 µM | SW-620 72.8 µM | SNB-19 43.8 µM | SF-295 88.3 µM | KM12 35 µM

CN(C)/C=N/c1nc2c(ncn2C2OC(CO)C(O)C2O)c(=O)[nH]1 (stereo unspecified)
inactive: SR > 100 µM | RXF 393 > 100 µM | SF-539 > 100 µM | NCI-H23 > 100 µM | SN12C > 100 µM | U-251 > 100 µM | EKVX > 100 µM | UO-31 > 100 µM | MOLT-4 > 100 µM | A498 > 100 µM | M19-MEL > 100 µM | SW-620 > 100 µM | SNB-19 > 100 µM | SF-295 > 100 µM | KM12 > 100 µM

ClCCN(CC#CCCCC#CCN(CCCl)CCCl)CCCl
inactive: SR 2.03 µM | RXF 393 15.5 µM | SF-539 8.36 µM | NCI-H23 6.85 µM | SN12C 7.21 µM | SK-MEL-28 19.1 µM | U-251 8.43 µM | EKVX 22.8 µM | UO-31 25.8 µM | CCRF-CEM 2.3 µM | MOLT-4 1.66 µM | A498 12.3 µM | M19-MEL 12.1 µM | SW-620 10.2 µM | SNB-19 13.6 µM | SF-295 11.6 µM | KM12 19.2 µM

Cc1ccc(S(=O)(=O)NCCCN(CCCNS(=O)(=O)c2ccc(C)cc2)S(=O)(=O)c2ccc(C)cc2)cc1
inactive: SR 69.7 µM | RXF 393 > 100 µM | SF-539 > 100 µM | NCI-H23 > 100 µM | SN12C > 100 µM | SK-MEL-28 > 100 µM | U-251 > 100 µM | UO-31 > 100 µM | CCRF-CEM > 100 µM | MOLT-4 > 100 µM | M19-MEL > 100 µM | SW-620 > 100 µM | SNB-19 > 100 µM | SF-295 > 100 µM | KM12 89.1 µM

Cc1cc(C)c(-c2noc(-c3ccc(Cl)cc3)c2C2=NCCN2)c(C)c1
inactive: SR 16.4 µM | RXF 393 14.2 µM | SF-539 16.8 µM | NCI-H23 17.4 µM | SN12C 20.3 µM | SK-MEL-28 17.7 µM | U-251 15.7 µM | EKVX 22.9 µM | UO-31 6.38 µM | CCRF-CEM 20.7 µM | MOLT-4 16.6 µM | M19-MEL 35.8 µM | SW-620 32.4 µM | SNB-19 28.1 µM | SF-295 14 µM | KM12 21.6 µM

CCOC(=O)C(=O)Nc1ccc(C)cc1C
inactive: SR > 100 µM | RXF 393 > 100 µM | SF-539 > 100 µM | NCI-H23 > 100 µM | SN12C > 100 µM | SK-MEL-28 > 100 µM | U-251 > 100 µM | EKVX > 100 µM | UO-31 > 100 µM | CCRF-CEM > 100 µM | MOLT-4 > 100 µM | M19-MEL > 100 µM | SW-620 > 100 µM | SNB-19 > 100 µM | SF-295 > 100 µM | KM12 > 100 µM

C/C(=N\NS(=O)(=O)c1ccc(C)cc1)c1c(O)cc(C)oc1=O
inactive: SR > 100 µM | SF-539 > 100 µM | NCI-H23 > 100 µM | SN12C > 100 µM | SK-MEL-28 > 100 µM | U-251 > 100 µM | EKVX > 100 µM | UO-31 > 100 µM | CCRF-CEM > 100 µM | MOLT-4 > 100 µM | A498 > 100 µM | M19-MEL > 100 µM | SW-620 > 100 µM | SNB-19 > 100 µM | SF-295 > 100 µM | KM12 > 100 µM

N=S(c1ccccc1)c1ccccc1[N+](=O)[O-] (stereo unspecified)
inactive: SR 18.3 µM | SF-539 18.5 µM | NCI-H23 20 µM | SN12C 15.8 µM | U-251 17.4 µM | EKVX 19.8 µM | UO-31 16 µM | CCRF-CEM 11.1 µM | MOLT-4 25.3 µM | A498 34.3 µM | M19-MEL 12.3 µM | SW-620 16.9 µM | SNB-19 18.5 µM | SF-295 18.8 µM | KM12 18.1 µM

O=C1C(=O)N(c2ccc(Cl)cc2)C(=O)C(=O)C1c1nc2ccccc2o1
inactive: RXF 393 > 100 µM | SF-539 > 100 µM | NCI-H23 > 100 µM | SN12C > 100 µM | SK-MEL-28 > 100 µM | U-251 > 100 µM | EKVX > 100 µM | UO-31 > 100 µM | CCRF-CEM > 100 µM | MOLT-4 > 100 µM | A498 > 100 µM | M19-MEL > 100 µM | SW-620 > 100 µM | SNB-19 > 100 µM | SF-295 > 100 µM | KM12 > 100 µM
